Test results reported in PubChem BioAssay (NCI).
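Growth conditions: 96-well plates. Treatment: test compound, 48 hours, 5 concentrations. Analysis: linear interpolation between bracketing concentrations; unreached endpoints set to highest concentration. The concentration for full growth arrest is given as TGI.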

Key:
Assay in all cases: NCI anticancer screen, dose series, 48 h
[1] = tested on: HL-60(TB) leukemia
[2] = tested on: MDA-MB-435
[3] = tested on: UACC-257 melanoma
[4] = tested on: NCI-H23 lung
[5] = tested on: DU-145 prostate
[6] = tested on: NCI-H460 lung
[7] = tested on: PC-3 prostate
[8] = tested on: HCT-15 colon
[9] = tested on: OVCAR-4 ovarian
[10] = tested on: K-562 leukemia
[11] = tested on: M14 melanoma
[12] = tested on: MDA-MB-231 breast
[13] = tested on: OVCAR-5 ovarian
[14] = tested on: SK-MEL-2 melanoma
[15] = tested on: RXF 393 renal
[16] = tested on: KM12 colon
[17] = tested on: A549 NSCLC

| SMILES | TGI [1] [µM] | TGI [2] [µM] | TGI [3] [µM] | TGI [4] [µM] | TGI [5] [µM] | TGI [6] [µM] | TGI [7] [µM] | TGI [8] [µM] | TGI [9] [µM] | TGI [10] [µM] | TGI [11] [µM] | TGI [12] [µM] | TGI [13] [µM] | TGI [14] [µM] | TGI [15] [µM] | TGI [16] [µM] | TGI [17] [µM] |
| --- | --- | --- | --- | --- | --- | --- | --- | --- | --- | --- | --- | --- | --- | --- | --- | --- | --- |
| CCCCc1ccc(Nc2nc(SC)c3[nH]cnc3n2)cc1 | > 46.4 | > 100 | > 100 | > 100 | > 100 | > 100 | > 100 | > 100 | > 100 | > 31.3 | > 100 | > 100 | > 100 | > 100 | > 100 | > 100 | > 100 |
| CC1=NN(c2cccc(Cl)c2)C2(SCC(=O)N2c2nc3ccccc3s2)/C1=C\c1cccs1 (configuration not stated) | 56 | > 100 | 64 | 43.5 | > 100 | 69.1 | 65.6 | 54.8 | 66 | 26.4 | 89.3 | 87 | 56.7 | 41.8 | 51.6 | 94.6 | 92.8 |
| Cc1cccc(CP(Cc2cccc(C)c2)CC2(Cp3c4ccccc4c4ccccc43)COC2)c1 | 2.78 | > 100 | > 100 | > 100 | > 100 | > 100 | > 100 | > 100 | > 100 | > 100 | > 100 | > 37 | > 100 | > 94.7 | > 100 | > 100 | > 100 |
| C=CCC1(OC(C)=O)C2OC(=O)C1(O)OCC2O (configuration not stated) | > 100 | > 100 | > 100 | > 100 | > 100 | > 100 | > 100 | > 100 | > 100 | > 100 | > 100 | > 100 | > 100 | > 100 | > 100 | > 100 | > 100 |
| CC(=O)O[C@H]1[C@@H]2OC(=O)[C@@](O)(CC3CCCO3)[C@@H]2CC(=O)[C@](C)(O)CC/C=C(\C)CCC[C@@H]1C (some centres not stated) | 57.8 | > 100 | > 100 |  | > 100 | > 100 | > 100 | > 100 | > 100 | 90.9 | > 100 | 63 | > 100 | > 100 | 35.9 | > 100 | > 100 |
| COc1ccc(C(=O)c2sc(Nc3ccc(Cl)cc3)nc2N)cc1 | > 100 | 7.35 | > 90.2 | > 51.6 | > 100 | 36.3 | > 68.3 | > 100 | > 61.4 | > 100 | > 100 | > 92.4 | > 100 | > 49.1 | > 54 | > 100 | > 59.6 |
| COc1cc2c(cc1OC)C(=O)/C(=C/c1ccc(Cl)cc1)CC2 | > 10 | > 10 | > 10 | > 10 | > 10 | > 10 | > 10 | > 10 | > 10 | > 10 | > 10 | > 10 | > 10 | > 10 | > 10 | > 10 | > 10 |
| O=C(CCc1ccc(O)c(O)c1)NCCc1cc(O)cc(O)c1 | > 100 | 66.6 | > 100 | > 100 | > 100 | > 100 | > 100 | > 100 |  | 79.4 | > 100 | > 100 | > 100 | > 100 | > 100 | > 100 | > 100 |
| Cc1nn(C(=O)c2ccc(Cl)cc2)c2c1C(c1ccccc1[N+](=O)[O-])SC(N)=N2 (configuration not stated) | > 10 | > 10 | > 10 | > 10 | > 10 | > 10 | > 10 | > 10 | > 10 | > 10 | > 10 | > 10 | > 10 | > 10 | 2.25 | > 10 | > 10 |
| COc1ccc(CC(=O)N2CCC3(C)CC(=O)CC=C23)cc1OC (configuration not stated) | > 100 | > 100 |  | > 100 | > 100 |  | > 100 | > 100 | > 100 | > 100 | > 100 | > 100 | > 100 | > 100 | > 100 | > 100 | > 100 |
| NC(=O)c1cc2ccc(O)cc2oc1=Nc1ccccc1 | 62.4 | > 100 | > 100 | 56 | > 100 | > 100 | > 100 | > 100 | > 100 | > 100 | > 100 | > 100 | > 100 | 53 | > 100 | > 100 | > 100 |
| C=CCc1cccc2cc(C(=O)Nc3ccccc3)c(=N)oc12 | > 100 | > 100 | > 100 | > 100 | > 100 | > 100 | > 100 | > 100 | 74.9 | > 100 | > 100 | > 100 | > 100 | 38.5 | > 100 | > 100 | > 100 |
| Cn1c2ccc3cc2c(=S)c2cc(ccc21)OCCOCCOCCOCCOCCO3 | > 10 | > 10 | > 10 | > 10 | > 10 | > 10 | > 10 | > 10 | > 10 | > 10 | > 10 | > 10 | > 10 | > 10 | > 10 | > 10 | > 10 |
